We go through 17 compounds from patent publication US5444069A, “Imidazo-pyridine angiotensin II antagonists used to treat memory loss” (Warner-Lambert Company, priority 1994, dated 1995).

Series [1] can be described thus: whole body autoradiography in rats. It counts as in vivo, rat. As to the method: The iodination was initiated by addition of chloramine-T (30 μg, 132 nMol) that was diluted to a concentration of 0.05 M in the same buffer as above. After shaking at room temperature for one minute the reaction was quenched with sodium metabisulfite (10 mg). […] This labeled material was reconstituted in 5% aqueous dextrose containing 30 mg/mL of the disodium salt of unlabeled Example 12 and adjusted to pH 9 by addition of several μL of 1 mM NaOH.
Male and female Sprague-Dawley rats (Charles River, Wilmington, average weight 281 g) were used in the autoradiography studies. Animals were on a fixed light cycle with unrestricted access to normal rat chow and water prior to the experiment. […] Animals were killed at 15 or 60 minutes postdose by halothane anesthesia and were rapidly frozen in acetone with dry ice. Carcasses were subsequently embedded in methylcellulose ice for whole-body sectioning and autoradiography. Autoradiograms were analyzed by computer assisted densitometry.
Results of the autoradiographical experiments are summarized in Table X. A relative scale of radioactivity is assigned with background equal to 0 and the most dense reading (liver and intestines) equal to 10. […] Another site that is highly labeled is the ovarian follicle. It is the most highly labeled non-excretory organ. All other tissues show weaker radioactivity.

Series [2] concerns the target T1, AT2 receptor (rabbit uterus receptor preparations) (Oryctolagus cuniculus, UniProt G1T351).
T1 construct: cell membrane preparations derived from rabbit uterus and corpus luteum; from tissue; host or cells: rabbit uterus, cell membrane preparation
T1 sequence (G1T351 1-363): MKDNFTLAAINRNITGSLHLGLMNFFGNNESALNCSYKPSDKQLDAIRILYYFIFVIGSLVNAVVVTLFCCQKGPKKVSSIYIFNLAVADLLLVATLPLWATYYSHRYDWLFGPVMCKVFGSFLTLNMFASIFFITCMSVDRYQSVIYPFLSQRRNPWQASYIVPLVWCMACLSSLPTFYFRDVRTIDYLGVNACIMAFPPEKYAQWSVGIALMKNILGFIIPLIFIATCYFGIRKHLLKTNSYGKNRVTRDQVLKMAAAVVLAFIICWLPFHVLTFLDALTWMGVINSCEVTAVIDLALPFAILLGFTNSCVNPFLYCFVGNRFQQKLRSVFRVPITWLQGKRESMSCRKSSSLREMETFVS
Kind of series: displacement of 3H-angiotensin II from rabbit uterus receptor preparations. To be noted: read-out: IC50 Values in Rabbit Uterine Preparations. Type of series: binding. An excerpt:
AT2 receptors are known to exist in organs of the female reproductive system. […] More specifically, AT2 receptors are densely located on granulosa cells in atretic follicles of the ovary.

In series [3] the target is T2, AT2 receptor (whole rat brain) (Rattus norvegicus, UniProt P35351).
T2 construct: IC50 Values in whole Rat Brain Preparations; from tissue; host or cells: whole rat brain
T2 sequence (P35351 1-363): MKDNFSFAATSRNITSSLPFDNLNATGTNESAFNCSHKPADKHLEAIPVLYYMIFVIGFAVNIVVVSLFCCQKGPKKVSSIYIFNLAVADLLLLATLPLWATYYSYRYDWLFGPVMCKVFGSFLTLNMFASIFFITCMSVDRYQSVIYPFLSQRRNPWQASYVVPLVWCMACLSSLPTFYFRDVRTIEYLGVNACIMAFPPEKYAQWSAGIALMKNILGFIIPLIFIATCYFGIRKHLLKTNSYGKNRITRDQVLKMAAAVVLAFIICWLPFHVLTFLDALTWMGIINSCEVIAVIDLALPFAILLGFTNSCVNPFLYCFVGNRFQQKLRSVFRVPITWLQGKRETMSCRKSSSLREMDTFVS
The experiment in a line: angiotensin II receptor binding in whole rat brain (DTT protocol). To be noted: whole rat brain; DTT included to eliminate AT1 binding; read-out: IC50 Values in whole Rat Brain Preparations. An excerpt:
Since receptor-specific binding in whole brain is low and is a mixture of two subtypes, an alternative protocol (Bennett and Snyder, Eur. J. Pharmacol., 67, 11-25) was used. This method includes DTT and thereby eliminates binding at AT1 receptors, thus-allowing evaluation of AT2 receptor events.

Series [4] relates to angiotensin II receptors (AT1 and AT2), rat brain regions. Kind of series: displacement of 125I-angiotensin II from receptor preparations of rat brain regions. Type of series: binding. Particulars: antagonist 10 μM. (Loss of bound radioactivity is the signal in a displacement assay; it reports binding, not function.)
Method: The concentration of all three antagonist compounds in these experiments is 1 μM (above the maximal effect concentration).
Series [5] has as its system angiotensin II induced secretion of AVP. Particulars: isolated rat explants; Schiavone et al., Hypertension 1991; cited from earlier work.
The conditions of series [6]: Barnes et al., Neuroreport 1991, cited from earlier work.
In series [7] the test system is angiotensin II receptors (AT1/AT2) of corpus luteum. The experiment in a line: inhibition of 125I-angiotensin II binding, corpus luteum. More on the design: species or system rabbit.
In series [8] the test system is rat striatum acetylcholine (ACh). Kind of series: effect on rat striatal acetylcholine (ACh) levels. Type of series: in vivo. Particulars: 0.5 h, ± SEM, vehicle 61.0 ± 2.33, * p < 0.05. As to the method: ACh concentrations were determined as described below. Each
Results were analyzed by a oneway

Series [9] deals with angiotensin II receptors (AT1/AT2) of granulosa cell. To be noted: 1 μM; 125I-angiotensin II; adapted from Pucell et al., Endocrinology 1991; cited from earlier work.
Where [10] appears, read: 30 mg/kg i.v. rat, scale 0-10, represents excretion.

With `Cc1cc(Cn2cnc3c2C[C@@H](C(=O)O)N(C(=O)C(c2ccccc2)c2ccccc2)C3)cc([125I])c1O` [^125 CI-Example 12], in [1] (30 mg/kg i.v. rat, scale 0-10), the “Relative Radioactivity, Adrenal” value came out at 3; the “Relative Radioactivity, Blood” value is reported as 4; the “Relative Radioactivity, Heart” value was found to be 3; the “Relative Radioactivity, Kidney” value is reported as 4-8. Moreover, in series [1] (30 mg/kg i.v. rat, scale 0-10), the “Relative Radioactivity, Lung” value amounted to 4; the “Relative Radioactivity, Ovarian follicle” value stood at 9; the “Relative Radioactivity, Ovary (non-follicular)” value was 3-5; the “Relative Radioactivity, Salivary gland” value is given as 6-7. Also, in series [1] (30 mg/kg i.v. rat, scale 0-10), the “Relative Radioactivity, Thymus” value was determined as 3 and the “Relative Radioactivity, Uterus” value is recorded as 2-3. Further, in [1] (setting [10]), the “Relative Radioactivity, Bladder” value is on record as 4-6; the “Relative Radioactivity, Intestines” value is recorded as 10; the “Relative Radioactivity, Liver” value is given as 10. Further, the “Relative Radioactivity, Testicle” value in series [1] (30 mg/kg i.v. rat, scale background 0 to most dense 10) was 1-2.
`Cc1cc(Cn2cnc3c2C[C@@H](C(=O)O)N(C(=O)C(c2ccc(F)cc2)c2ccc(F)cc2)C3)ccc1N(C)C` [Example 5, (S)-(-)-5-[bis(4-fluorophenyl)acetyl)-1-[[4-(dimethylamino)-3-methyl-phenyl]methyl]-4,5,6,7-tetrahydro-1H-imidazo[4,5-c]pyridine-6-carboxylic acid]: the IC50 in series [2] came out at 38 nM.
Same read-out and setting: the same measure for `CC(=O)Nc1ccc(Cn2cnc3c2C[C@@H](C(=O)O)N(C(=O)C(c2ccccc2)c2ccccc2)C3)cc1C` [Example 11, (S)-(-)-[[4-(acetylamino)-3-methylphenyl]methyl]-5-(diphenylacetyl)-4,5,6,7-tetrahydro-1H-imidazo-[4,5-c]pyridine-6-carboxylic acid]: 150 nM.
Turning to `Cc1cccc(Cn2cnc3c2C[C@@H](C(=O)O)N(C(=O)C(c2ccccc2)c2ccccc2)C3)c1` [Example 16, (S)-(-)-5-(diphenylacetyl)-4,5,6,7-tetrahydro-1-[(3-methylphenyl)methyl]-1H-imidazo[4,5-c]pyridine-6-carboxylic acid], the IC50 in series [3] was determined as 1600 nM.
For `CNCC(=O)N[C@@H](CCCN=C(N)N)C(=O)N[C@H](C(=O)N[C@@H](Cc1ccc(O)cc1)C(=O)N[C@H](C(=O)N[C@@H](Cc1cnc[nH]1)C(=O)N1CCC[C@H]1C(=O)N[C@@H](C)C(=O)O)C(C)C)C(C)C` [SAR, saralasin, reference compound], the “125I-Angiotensin II Bound, Brain Stem” value in series [4] (rat brain stem, total 2124) worked out at 288 cpm. Moreover, the “125I-Angiotensin II Bound, Cerebellum” value in [4] (rat cerebellum, total 571) came out at 269 cpm. In addition, the “125I-Angiotensin II Bound, Cortex” value in series [4] (rat cortex, total 766) amounted to 336 cpm. Further, the “125I-Angiotensin II Bound, Cortical Neurons” value in series [4] (rat cortical neurons, total 2647) came out at 293 cpm. The “125I-Angiotensin II Bound, Striatal Membrane” value in series [4] (rat striatal membrane, total 2462) is 1295 cpm.
Take `COc1ccc(Cn2cnc3c2C[C@@H](C(=O)O)N(C(=O)C2c4ccccc4-c4ccccc42)C3)cc1C` [Example 6]: the IC50 in series [2] turned out to be 1200 nM.
For `Cc1cc(Cn2cnc3c2C[C@@H](C(=O)O)N(C(=O)C(c2ccccc2)c2ccccc2)C3)cc(I)c1O` [Example 12, (S)-(-)-5-(diphenylacetyl)-1-[(4-hydroxy-3-iodo-5-methylphenyl)methyl]-4,5,6,7-tetrahydro-1H-imidazo[4,5-c]pyridine-6-carboxylic acid], the results for the IC50 in series [2] and in series [3] were 25 nM and 570 nM, respectively. Also, the “tissue distribution (in words)” value in series [1] (rat, autoradiography) is listed as “selectively distribute to the ovarian follicle”.
Turning to `COc1ccc(Cn2cnc3c2C[C@@H](C(=O)O)N(C(=O)Cc2ccccc2)C3)cc1C` [Example 9, (S)-(-)-4,5,6,7-tetrahydro-1-[(4-methoxy-3-methylphenyl)methyl]-5-(phenylacetyl)-1H-imidazo-[4,5-c]pyridine-6-carboxylic acid], the IC50 in [2] is 95 nM.
With `O=C(O)[C@@H]1Cc2c(ncn2CCC23CC4CC(CC(C4)C2)C3)CN1C(=O)C(c1ccccc1)c1ccccc1` [Example 4], the IC50 was 91 nM in [2] and 180 nM in series [3].
On to `Cc1cc(Cn2cnc3c2C[C@@H](C(=O)O)N(C(=O)C(c2ccccc2)c2ccccc2)C3)ccc1[N+](=O)[O-]` [Example 7], for which the IC50 in [2] was 67 nM.
The same measure, in the same setting: in the case of `COc1ccc(Cn2cnc3c2C[C@@H](C(=O)O)N(C(=O)C(c2ccc(Cl)cc2)c2ccc(Cl)cc2)C3)cc1C` [Example 10, (S)-(-)-5-[bis(4-chlorophenyl)acetyl]-4,5,6,7-tetrahydro-1-[(4-methoxy-3-methylphenyl)methyl]-1H-imidazo-[4,5-c]pyridine-6-carboxylic acid] it was 120 nM.
In the case of `O=C(O)[C@@H]1Cc2c(ncn2Cc2ccc(C(F)(F)F)cc2)CN1C(=O)C(c1ccccc1)c1ccccc1` [Example 15, (S)-(-)-5-(diphenylacetyl)-4,5,6,7-tetrahydro-1-[[4-(trifluoromethyl)-phenyl]methyl]-1H-imidazo[4,5-c]pyridine-6-carboxylic acid], the IC50 in series [3] was determined as 780 nM.
With `Cc1cc(Cn2cnc3c2C[C@@H](C(=O)O)N(C(=O)C(c2ccccc2)c2ccccc2)C3)ccc1N` [Example 2, (S)-(-)-1-[(4-amino-3-methylphenyl)-methyl]-5-(diphenylacetyl)-4,5,6,7-tetrahydro-1H-imidazo[4,5-c]pyridine-6-carboxylic acid], the “antagonism of angiotensin II induced AVP secretion” value in series [5] is “antagonizing the angiotensin II induced secretion of AVP”. Further, in series [2], the IC50 came to 32 nM. The “reversal of scopolamine-induced amnesia” value in series [6] is listed as “reverses scopalamine-induced amnesia”. In [6] (rodent behavioral models), the cognition enhancement entry is recorded as “does indeed possess cognition enhancing actions in rodent behavioral models”.
For the compound `COc1ccc(Cn2cnc3c2C[C@@H](C(=O)O)N(C(=O)C(c2ccccc2)c2ccccc2)C3)cc1C` [Example 3, (S)-(-)-5-(diphenylacetyl)-4,5,6,7-tetrahydro-1-[(4-methoxy-3-methyl-phenyl)methyl]-1H-imidazo[4,5-c]pyridine-6-carboxylic acid], in series [2], the IC50 was determined as 26 nM.
On to `CCCCc1nc(Cl)c(CO)n1Cc1ccc(-c2ccccc2-c2nn[nH]n2)cc1` [DUP 753, reference compound], for which, in [7] (1 μM, 125I-angiotensin II, data from Warner-Lambert Co.), the “% Inhibition with 1 μM Antagonist, Corpus luteum” value is listed as 97%. Also, the “displacement of 125I-angiotensin II, corpus luteum (in words)” value in series [7] (Table IX) is “displaces nearly all of the radioligand”. In addition, the “ACh concentration, rat striatum” value in series [8] (30 mg/kg IP) is given as 67.5 ± 5.71 nM/g. Besides, the “% Inhibition with 1 μM Antagonist, Granulosa cell” value in [9] is listed as 3%.
In the case of `O=C(CCCN1CCC(O)(c2ccc(Cl)cc2)CC1)c1ccc(F)cc1` [Haloperidol, haloperidol, reference compound], the “ACh concentration, rat striatum” value in [8] (2 mg/kg IP) is recorded as 36.9 ± 3.27 nM/g.
As for `O=C(O)[C@@H]1Cc2c(ncn2Cc2ccccc2)CN1C(=O)C(c1ccccc1)c1ccccc1` [Example 8, (S)-(-)-5-(diphenylacetyl)-4,5,6,7-tetrahydro-1-(phenylmethyl)-1H-imidazo[4,5-c]pyridine-6-carboxylic acid], the IC50 is 74 nM in series [2] and 3800 nM in series [3].
